# Target: T1, human kinase Mps-1 (Homo sapiens, UniProt P33981)
# T1 construct: N-terminally GST-tagged human full length recombinant Mps-1 kinase; purchased Invitrogen, Karslruhe, Germany PV4071
# T1 sequence (P33981 1-857): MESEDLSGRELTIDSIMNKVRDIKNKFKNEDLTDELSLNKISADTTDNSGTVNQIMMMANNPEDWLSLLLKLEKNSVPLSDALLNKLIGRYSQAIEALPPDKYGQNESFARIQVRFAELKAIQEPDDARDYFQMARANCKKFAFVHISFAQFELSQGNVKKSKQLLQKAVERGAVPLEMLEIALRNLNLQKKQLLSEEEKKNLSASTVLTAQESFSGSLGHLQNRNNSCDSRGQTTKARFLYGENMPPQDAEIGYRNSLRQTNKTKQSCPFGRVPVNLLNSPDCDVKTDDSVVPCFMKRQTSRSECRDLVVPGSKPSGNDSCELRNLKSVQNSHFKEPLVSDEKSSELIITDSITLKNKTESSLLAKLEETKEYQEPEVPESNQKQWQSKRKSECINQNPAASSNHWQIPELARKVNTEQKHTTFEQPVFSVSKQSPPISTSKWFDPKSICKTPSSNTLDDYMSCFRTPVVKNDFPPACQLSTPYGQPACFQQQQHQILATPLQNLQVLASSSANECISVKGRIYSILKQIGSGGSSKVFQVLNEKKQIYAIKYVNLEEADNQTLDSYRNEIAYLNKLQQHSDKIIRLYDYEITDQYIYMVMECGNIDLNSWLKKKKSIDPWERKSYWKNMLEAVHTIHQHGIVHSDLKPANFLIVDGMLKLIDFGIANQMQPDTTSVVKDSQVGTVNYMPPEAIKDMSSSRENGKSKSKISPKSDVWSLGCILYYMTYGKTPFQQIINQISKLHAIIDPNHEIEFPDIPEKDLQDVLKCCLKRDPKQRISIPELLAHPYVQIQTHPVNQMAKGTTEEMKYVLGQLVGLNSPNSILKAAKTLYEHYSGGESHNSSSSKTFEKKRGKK
# Experiment: Mps-1 kinase assay (HTRF)
# Format: biochemical
# Details: lowATP; mean; read-out: Mps1 lowATP mean IC50
# Procedure: The human kinase Mps-1 phosphorylates a biotinylated substrate peptide. Detection of the phosphorylated product is achieved by homogenous time-resolved fluorescence resonance energy transfer (HTRF) from Europium-labelled anti-phospho-Serine/Threonine antibody as donor to streptavidin labelled with cross-linked allophycocyanin (SA-XLent) as acceptor. Compounds are tested for their inhibition of the kinase activity.
# N-terminally GST-tagged human full length recombinant Mps-1 kinase (purchased from Invitrogen, Karslruhe, Germany, cat. no PV4071) was used. As substrate for the kinase reaction a biotinylated peptide of the amino-acid sequence PWDPDDADITEILG (C-terminus in amide form, purchased from Biosynthan GmbH, Berlin) was used.
# For the assay 50 nl of a 100-fold concentrated solution of the test compound in DMSO was pipetted into a black low volume 384 well microtiter plate (Greiner Bio-One, Frickenhausen, Germany), 2 μl of a solution of Mps-1 in assay buffer [0.1 mM sodium-ortho-vanadate, 10 mM MgCl2, 2 mM DTT, 25 mM Hepes pH 7.7, 0.05% BSA, 0.001% Pluronic F-127] were added and the mixture was incubated for 15 min at 22° C. to allow pre-binding of the test compounds to Mps-1 before the start of the kinase reaction. Then the kinase reaction was started by the addition of 3 μl of a solution of 16.7 μM ATP and 1.67 μM peptide in assay buffer and the resulting mixture was incubated for a reaction time of 60 min at 22° C. The concentration of Mps-1 in the assay was adjusted to the activity of the enzyme lot and was chosen appropriate to have the assay in the linear range, typical enzyme concentrations were in the range of about 1 nM (final conc. in the 5 μl assay volume). The reaction was stopped by the addition of 3 μl of a solution of HTRF detection reagents (100 mM Hepes pH 7.4, 0.1% BSA, 40 mM EDTA, 140 nM Streptavidin-XLent [#61GSTXLB, Fa. Cis Biointernational, Marcoule, France], 1.5 nM anti-phospho(Ser/Thr)-Europium-antibody [#AD0180, PerkinElmer LAS, Rodgau-Jügesheim, Germany].
# The resulting mixture was incubated 1 h at 22° C. to allow the binding of the phosphorylated peptide to the anti-phospho(Ser/Thr)-Europium-antibody. Subsequently the amount of phosphorylated substrate was evaluated by measurement of the resonance energy transfer from the Europium-labelled anti-phospho(Ser/Thr) antibody to the Streptavidin-XLent. Therefore, the fluorescence emissions at 620 nm and 665 nm after excitation at 350 nm was measured in a HTRF reader, e.g. a Rubystar (BMG Labtechnologies, Offenburg, Germany) or a Viewlux (PerkinElmer LAS, Rodgau-Jügesheim, Germany). The ratio of the emissions at 665 nm and at […] was taken as the measure for the amount of phosphorylated substrate. The data were normalised (enzyme reaction without inhibitor=0% inhibition, all other assay components but no enzyme=100% inhibition).
row,SMILES,IC50 [µM]
1,"CC(C)CNc1nc2ccccc2n2c(-c3ccc4c(c3)OCO4)cnc12 [Example 1-28, 1-(1,3-benzodioxol-5-yl)-N-(2-methylpropyl)imidazo[1,2-a]quinoxalin-4-amine]",9.9
2,"CCOc1ccc(-c2cnc3c(NCC(C)C)nc4ccccc4n23)cc1 [Example 1-29, 1-(4-ethoxyphenyl)-N-(2-methylpropyl)imidazo[1,2-a]quinoxalin-4-amine]",4.98
3,"COc1ccc(-c2cnc3c(NCC(C)C)nc4ccccc4n23)c(C)c1 [Example 1-30, 1-(4-methoxy-2-methylphenyl)-N-(2-methylpropyl)imidazo[1,2-a]quinoxalin-4-amine]",15.3
4,"CC(C)CNc1nc2ccccc2n2c(-c3cccc(F)c3F)cnc12 [Example 1-31, 1-(2,3-difluorophenyl)-N-(2-methylpropyl)imidazo[1,2-a]quinoxalin-4-amine]",16.3
5,"CC(C)CNc1nc2ccccc2n2c(-c3cccnc3)cnc12 [Example 1-32, N-(2-methylpropyl)-1-(pyridin-3-yl)imidazo[1,2-a]quinoxalin-4-amine]",18.9
6,"COc1ccc(-c2cnc3c(NCC(C)C)nc4ccccc4n23)cc1F [Example 1-33, 1-(3-fluoro-4-methoxyphenyl)-N-(2-methylpropyl)imidazo[1,2-a]quinoxalin-4-amine]",1.76
7,"CC(C)CNc1nc2ccccc2n2c(-c3ccncc3)cnc12 [Example 1-34, N-(2-methylpropyl)-1-(pyridin-4-yl)imidazo[1,2-a]quinoxalin-4-amine]",11.9
8,"CC(C)CNc1nc2ccccc2n2c(-c3ccccc3O)cnc12 [Example 1-35, 2-{4-[(2-methylpropyl)amino]imidazo[1,2-a]quinoxalin-1-yl}phenol]",4.62
9,"CC(C)CNc1nc2ccccc2n2c(-c3cccc(O)c3)cnc12 [Example 1-36, 3-{4-[(2-methylpropyl)amino]imidazo[1,2-a]quinoxalin-1-yl}phenol]",18.6
10,"CC(C)CNc1nc2ccccc2n2c(-c3ccc(O)cc3)cnc12 [Example 1-37, 4-{4-[(2-methylpropyl)amino]imidazo[1,2-a]quinoxalin-1-yl}phenol]",0.301
11,"Cc1ccc(-c2cnc3c(NCC(C)C)nc4ccccc4n23)s1 [Example 1-38, N-(2-methylpropyl)-1-(5-methylthiophen-2-yl)imidazo[1,2-a]quinoxalin-4-amine]",6.05
12,"CC(C)CNc1nc2ccccc2n2c(-c3ccc4[nH]ccc4c3)cnc12 [Example 1-39, 1-(1H-indol-5-yl)-N-(2-methylpropyl)imidazo[1,2-a]quinoxalin-4-amine]",8.86
13,"CC(C)CNc1nc2ccccc2n2c(-c3ccc(S(C)(=O)=O)cc3)cnc12 [Example 1-40, N-(2-methylpropyl)-1-[4-(methylsulfonyl)phenyl]imidazo[1,2-a]quinoxalin-4-amine]",17.4
14,"CC(C)CNc1nc2ccccc2n2c(-c3cc(F)ccc3F)cnc12 [Example 1-41, 1-(2,5-difluorophenyl)-N-(2-methylpropyl)imidazo[1,2-a]quinoxalin-4-amine]",10.6
15,"Cc1ccc(-c2cnc3c(NCC(C)C)nc4ccccc4n23)c(F)c1 [Example 1-42, 1-(2-fluoro-4-methylphenyl)-N-(2-methylpropyl)imidazo[1,2-a]quinoxalin-4-amine]",5.91
16,"CC(C)CNc1nc2ccccc2n2c(-c3cc[nH]n3)cnc12 [Example 1-43, N-(2-methylpropyl)-1-(1H-pyrazol-3-yl)imidazo[1,2-a]quinoxalin-4-amine]",10.4
17,"CC(=O)NCc1cccc(-c2cnc3c(NCC(C)C)nc4ccccc4n23)c1 [Example 1-44, N-(3-{4-[(2-methylpropyl)amino]imidazo[1,2-a]quinoxalin-1-yl}benzyl)acetamide]",11.5
18,"Cc1ccc(-c2cnc3c(NCC(C)C)nc4ccccc4n23)cn1 [Example 1-45, N-(2-methylpropyl)-1-(6-methylpyridin-3-yl)imidazo[1,2-a]quinoxalin-4-amine]",8.19
19,"CNC(=O)c1ccc(-c2cnc3c(NCC(C)C)nc4ccccc4n23)cc1Cl [Example 1-46, 2-chloro-N-methyl-4-{4-[(2-methylpropyl)amino]imidazo[1,2-a]quinoxalin-1-yl}benzamide]",2.42
20,"CC(C)CNc1nc2ccccc2n2c(-c3ccc(C(=O)NC4CC4)c(Cl)c3)cnc12 [Example 1-47, 2-chloro-N-cyclopropyl-4-{4-[(2-methylpropyl)amino]imidazo[1,2-a]quinoxalin-1-yl}benzamide]",0.367
21,"CC(C)CNc1nc2ccccc2n2c(-c3ccc4[nH]ncc4c3)cnc12 [Example 1-48, 1-(1H-indazol-5-yl)-N-(2-methylpropyl)imidazo[1,2-a]quinoxalin-4-amine]",4.53
22,"CC(C)CNc1nc2ccccc2n2c(-c3ccc4cn[nH]c4c3)cnc12 [Example 1-49, 1-(1H-indazol-6-yl)-N-(2-methylpropyl)imidazo[1,2-a]quinoxalin-4-amine]",6.46
23,"CNC(=O)c1ccc(-c2cnc3c(NCC(C)C)nc4ccccc4n23)cn1 [Example 1-50, N-methyl-5-{4-[(2-methylpropyl)amino]imidazo[1,2-a]quinoxalin-1-yl}pyridine-2-carboxamide]",0.416
24,"O=C(NC1CC1)c1ccc(-c2cnc3c(NCCO)nc4ccccc4n23)cc1 [Example 2-1, N-cyclopropyl-4-[4-(2-hydroxy-ethylamino)-imidazo[1,2-a]quinoxalin-1-yl]-benzamide]",0.113
25,"O=C(NC1CC1)c1ccc(-c2cnc3c(NCCCN4CCOCC4)nc4ccccc4n23)cc1 [Example 2-2, N-cyclopropyl-4-(4-{[3-(morpholin-4-yl)propyl]amino}imidazo[1,2-a]quinoxalin-1-yl)benzamide]",0.396
26,"CC(C)CCNc1nc2ccccc2n2c(-c3ccc(C(=O)NC4CC4)cc3)cnc12 [Example 2-3, N-cyclopropyl-4-{4-[(3-methylbutyl)amino]imidazo[1,2-a]quinoxalin-1-yl}benzamide]",0.034
27,"Cc1cccc(CNc2nc3ccccc3n3c(-c4ccc(C(=O)NC5CC5)cc4)cnc23)c1 [Example 2-4, N-cyclopropyl-4-{4-[(3-methylbenzyl)amino]imidazo[1,2-a]quinoxalin-1-yl}benzamide]",0.132
28,"O=C(NC1CC1)c1ccc(-c2cnc3c(NCc4cccc(F)c4)nc4ccccc4n23)cc1 [Example 2-5, N-cyclopropyl-4-{4-[(3-fluorobenzyl)amino]imidazo[1,2-a]quinoxalin-1-yl}benzamide]",0.09
29,"Cc1ccccc1CNc1nc2ccccc2n2c(-c3ccc(C(=O)NC4CC4)cc3)cnc12 [Example 2-6, N-cyclopropyl-4-{4-[(2-methylbenzyl)amino]imidazo[1,2-a]quinoxalin-1-yl}benzamide]",0.232

# — patent US8729082B2, “Substituted imidazoquinoxalines” (Bayer Intellectual Property GmbH, priority 2009, dated 2014)
